Assay results: ChEMBL document CHEMBL5634096, “Design, synthesis and bioevaluation of PI3Kα-selective inhibitors as potential colorectal cancer drugs” (Eur J Med Chem, 2023)
pIC50: −log10 of the molar value.

Experiments:
[1] = test system: MCF7; assay: Antiproliferative activity against human MCF7 cells assessed as reduction in cell viability incubated for 24 to 48 hrs by CCK-8 assay; assay type: functional, cell-based
[2] = test system: HCT-116; assay: Antiproliferative activity against human HCT-116 cells assessed as reduction in cell viability incubated for 24 to 48 hrs by CCK-8 assay; assay type: functional, cell-based
[3] = test system: MDA-MB-231; assay: Antiproliferative activity against human MDA-MB-231 cells assessed as reduction in cell viability incubated for 24 to 48 hrs by CCK-8 assay; assay type: functional, cell-based
[4] = test system: SW-620; assay: Antiproliferative activity against human SW-620 cells assessed as reduction in cell viability incubated for 24 to 48 hrs by CCK-8 assay; assay type: functional, cell-based
[5] = biological target: Phosphatidylinositol 4,5-bisphosphate 3-kinase catalytic subunit alpha isoform (Homo sapiens, UniProt P42336); assay: Inhibition of PI3Kalpha (unknown origin) by ADP-Glo luminescent kinase assay
Phosphatidylinositol 4,5-bisphosphate 3-kinase catalytic subunit alpha isoform, sequence (P42336 whole entry, canonical isoform): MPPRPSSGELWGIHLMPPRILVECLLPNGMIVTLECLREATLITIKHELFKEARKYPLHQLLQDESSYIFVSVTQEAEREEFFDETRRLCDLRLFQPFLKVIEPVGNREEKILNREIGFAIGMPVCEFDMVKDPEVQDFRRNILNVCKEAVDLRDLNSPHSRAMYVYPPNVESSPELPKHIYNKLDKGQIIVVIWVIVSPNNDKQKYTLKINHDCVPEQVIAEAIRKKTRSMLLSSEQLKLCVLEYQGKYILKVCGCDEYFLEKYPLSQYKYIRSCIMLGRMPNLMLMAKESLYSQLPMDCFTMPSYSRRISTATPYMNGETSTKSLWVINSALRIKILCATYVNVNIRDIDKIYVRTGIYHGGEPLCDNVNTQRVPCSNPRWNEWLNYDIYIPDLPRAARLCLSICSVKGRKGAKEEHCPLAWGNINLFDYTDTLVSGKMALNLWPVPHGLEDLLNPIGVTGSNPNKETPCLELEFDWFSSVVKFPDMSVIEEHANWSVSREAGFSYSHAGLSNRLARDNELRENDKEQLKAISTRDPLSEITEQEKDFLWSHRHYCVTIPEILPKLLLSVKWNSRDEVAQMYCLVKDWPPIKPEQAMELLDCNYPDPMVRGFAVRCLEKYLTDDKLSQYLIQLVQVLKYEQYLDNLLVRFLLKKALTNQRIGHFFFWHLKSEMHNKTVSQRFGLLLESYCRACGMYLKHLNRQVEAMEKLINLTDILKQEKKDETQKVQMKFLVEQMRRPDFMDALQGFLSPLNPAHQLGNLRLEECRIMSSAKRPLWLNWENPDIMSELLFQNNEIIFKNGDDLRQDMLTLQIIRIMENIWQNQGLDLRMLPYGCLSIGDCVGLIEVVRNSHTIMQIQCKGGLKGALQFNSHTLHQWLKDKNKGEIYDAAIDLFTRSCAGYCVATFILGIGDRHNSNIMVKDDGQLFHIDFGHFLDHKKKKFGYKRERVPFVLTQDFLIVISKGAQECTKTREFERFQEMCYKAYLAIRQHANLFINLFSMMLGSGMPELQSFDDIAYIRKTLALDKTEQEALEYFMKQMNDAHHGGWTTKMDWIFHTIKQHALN

[6] = biological target: Phosphatidylinositol 4,5-bisphosphate 3-kinase catalytic subunit beta isoform (Homo sapiens, UniProt P42338); assay: Inhibition of PI3Kbeta (unknown origin) by ADP-Glo luminescent kinase assay
Phosphatidylinositol 4,5-bisphosphate 3-kinase catalytic subunit beta isoform, sequence (P42338 whole entry, canonical isoform): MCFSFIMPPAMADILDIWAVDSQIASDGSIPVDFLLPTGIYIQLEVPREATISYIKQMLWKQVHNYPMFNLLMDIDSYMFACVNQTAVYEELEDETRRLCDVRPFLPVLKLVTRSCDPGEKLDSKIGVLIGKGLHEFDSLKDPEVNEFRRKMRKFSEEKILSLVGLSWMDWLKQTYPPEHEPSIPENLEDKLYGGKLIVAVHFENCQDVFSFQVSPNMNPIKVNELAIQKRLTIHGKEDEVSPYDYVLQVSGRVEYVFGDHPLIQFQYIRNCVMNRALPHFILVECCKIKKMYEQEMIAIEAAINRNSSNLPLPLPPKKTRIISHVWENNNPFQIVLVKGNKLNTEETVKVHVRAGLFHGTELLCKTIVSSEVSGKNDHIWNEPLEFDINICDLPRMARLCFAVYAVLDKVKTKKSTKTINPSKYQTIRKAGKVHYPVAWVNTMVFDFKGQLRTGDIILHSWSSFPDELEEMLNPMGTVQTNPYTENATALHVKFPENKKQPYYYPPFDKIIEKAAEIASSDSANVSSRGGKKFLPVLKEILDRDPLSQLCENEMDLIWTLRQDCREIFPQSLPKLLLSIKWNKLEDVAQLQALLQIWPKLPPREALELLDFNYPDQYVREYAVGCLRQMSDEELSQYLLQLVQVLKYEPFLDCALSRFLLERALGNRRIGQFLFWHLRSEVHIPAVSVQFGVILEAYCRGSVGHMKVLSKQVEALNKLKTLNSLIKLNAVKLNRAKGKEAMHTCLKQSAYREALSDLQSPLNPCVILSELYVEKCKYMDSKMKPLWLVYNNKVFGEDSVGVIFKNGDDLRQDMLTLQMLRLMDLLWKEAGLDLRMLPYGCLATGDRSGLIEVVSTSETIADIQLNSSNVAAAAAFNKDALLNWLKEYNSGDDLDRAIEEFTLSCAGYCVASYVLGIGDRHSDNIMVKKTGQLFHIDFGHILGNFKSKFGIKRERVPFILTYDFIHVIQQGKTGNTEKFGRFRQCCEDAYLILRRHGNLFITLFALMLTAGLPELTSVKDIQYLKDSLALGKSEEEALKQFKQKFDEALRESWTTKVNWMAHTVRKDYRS

[7] = biological target: T1, Phosphatidylinositol 4,5-bisphosphate 3-kinase catalytic subunit delta isoform (Homo sapiens, UniProt O00329); assay: Inhibition of PI3Kdelta (unknown origin) by ADP-Glo luminescent kinase assay
T1 sequence (O00329 whole entry): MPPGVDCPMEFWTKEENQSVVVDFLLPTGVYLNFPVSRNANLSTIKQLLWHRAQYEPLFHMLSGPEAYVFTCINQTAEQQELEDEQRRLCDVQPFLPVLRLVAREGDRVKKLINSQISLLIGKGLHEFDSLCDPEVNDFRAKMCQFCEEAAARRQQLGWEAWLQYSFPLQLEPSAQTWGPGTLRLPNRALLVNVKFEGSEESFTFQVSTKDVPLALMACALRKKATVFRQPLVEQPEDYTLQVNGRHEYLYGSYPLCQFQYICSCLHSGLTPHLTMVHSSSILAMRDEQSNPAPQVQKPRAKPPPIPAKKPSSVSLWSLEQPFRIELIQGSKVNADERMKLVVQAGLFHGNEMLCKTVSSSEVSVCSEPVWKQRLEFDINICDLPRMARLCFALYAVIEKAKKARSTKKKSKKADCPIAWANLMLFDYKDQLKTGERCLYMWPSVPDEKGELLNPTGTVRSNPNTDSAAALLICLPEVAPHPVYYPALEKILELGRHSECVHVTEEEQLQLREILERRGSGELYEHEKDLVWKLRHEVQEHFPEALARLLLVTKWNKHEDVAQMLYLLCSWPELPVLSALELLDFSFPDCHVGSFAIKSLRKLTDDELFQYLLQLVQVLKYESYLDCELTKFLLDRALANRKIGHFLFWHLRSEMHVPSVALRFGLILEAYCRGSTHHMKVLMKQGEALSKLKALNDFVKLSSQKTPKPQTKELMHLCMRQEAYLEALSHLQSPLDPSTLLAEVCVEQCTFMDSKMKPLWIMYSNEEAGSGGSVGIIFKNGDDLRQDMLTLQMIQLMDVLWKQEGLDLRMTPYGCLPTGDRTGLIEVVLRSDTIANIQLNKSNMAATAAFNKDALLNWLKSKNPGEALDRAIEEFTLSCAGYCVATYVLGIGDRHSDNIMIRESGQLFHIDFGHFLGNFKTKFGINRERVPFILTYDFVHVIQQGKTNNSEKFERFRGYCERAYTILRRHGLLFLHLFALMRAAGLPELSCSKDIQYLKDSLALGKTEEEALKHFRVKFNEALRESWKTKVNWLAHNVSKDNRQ

[8] = biological target: Phosphatidylinositol 4,5-bisphosphate 3-kinase catalytic subunit gamma isoform (Homo sapiens, UniProt P48736); assay: Inhibition of PI3Kgamma (unknown origin) by ADP-Glo luminescent kinase assay
Phosphatidylinositol 4,5-bisphosphate 3-kinase catalytic subunit gamma isoform, sequence (P48736 whole entry, canonical isoform): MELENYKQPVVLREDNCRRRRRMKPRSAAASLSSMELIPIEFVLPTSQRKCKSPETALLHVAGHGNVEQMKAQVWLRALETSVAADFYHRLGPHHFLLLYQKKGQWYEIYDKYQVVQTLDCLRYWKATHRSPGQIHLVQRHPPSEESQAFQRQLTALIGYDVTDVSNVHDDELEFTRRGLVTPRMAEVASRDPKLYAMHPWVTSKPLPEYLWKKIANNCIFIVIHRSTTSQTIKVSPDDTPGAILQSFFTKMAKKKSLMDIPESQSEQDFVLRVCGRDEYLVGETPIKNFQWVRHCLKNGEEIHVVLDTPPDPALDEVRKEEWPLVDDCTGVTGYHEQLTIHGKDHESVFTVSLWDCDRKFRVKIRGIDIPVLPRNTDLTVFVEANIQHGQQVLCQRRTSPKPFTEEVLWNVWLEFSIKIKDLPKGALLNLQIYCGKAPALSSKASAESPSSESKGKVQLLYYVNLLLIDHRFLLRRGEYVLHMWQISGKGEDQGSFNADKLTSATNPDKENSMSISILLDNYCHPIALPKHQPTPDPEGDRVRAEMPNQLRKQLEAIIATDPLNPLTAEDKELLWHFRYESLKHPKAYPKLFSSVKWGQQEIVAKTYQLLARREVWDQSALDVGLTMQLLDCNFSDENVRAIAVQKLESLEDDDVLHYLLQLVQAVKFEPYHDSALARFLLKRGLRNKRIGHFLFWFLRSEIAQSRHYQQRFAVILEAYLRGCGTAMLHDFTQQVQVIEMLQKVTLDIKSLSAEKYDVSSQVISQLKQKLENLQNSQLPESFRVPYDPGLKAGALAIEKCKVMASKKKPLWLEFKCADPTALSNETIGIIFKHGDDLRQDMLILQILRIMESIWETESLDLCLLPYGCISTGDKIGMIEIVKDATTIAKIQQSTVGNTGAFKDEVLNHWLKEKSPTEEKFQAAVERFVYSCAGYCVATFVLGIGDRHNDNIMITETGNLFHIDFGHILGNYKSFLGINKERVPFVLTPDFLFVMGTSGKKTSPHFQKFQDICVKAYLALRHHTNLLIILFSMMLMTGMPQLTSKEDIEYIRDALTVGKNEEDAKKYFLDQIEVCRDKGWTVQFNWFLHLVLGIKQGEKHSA

Row | SMILES | pIC50 [1] | pIC50 [2] | pIC50 [3] | pIC50 [4] | pIC50 [5] | pIC50 [6] | pIC50 [7] | pIC50 [8]
1 | NC(=O)[C@H](NC(=O)c1cnc2ccc(-c3ccc4oc(N)nc4c3)cn12)c1ccccc1 | 4.91 | 5.14 | < 4.00 | 4.30 | 7.64 |  |  | 
2 | NC(=O)[C@H](Cc1ccccc1)NC(=O)c1cnc2ccc(-c3ccc4oc(N)nc4c3)cn12 | 4.73 | 5.11 | 4.74 | 5.08 | 7.95 |  |  | 
3 | NC(=O)CNc1cnc2cc(-c3ccc4oc(N)nc4c3)ccc2n1 |  |  |  |  | 6.32 |  |  | 
4 | NC(=O)C(NC(=O)c1cnc2ccc(-c3ccc4oc(N)nc4c3)cn12)c1ccccc1 (stereo unspecified) | 4.79 | 4.47 | < 4.00 | 4.42 | 7.71 |  |  | 
5 | NC(=O)CNc1ncnc2ccc(-c3ccc4oc(N)nc4c3)cc12 |  |  |  |  | 7.59 |  |  | 
6 | NC(=O)[C@H](Cc1ccc(O)cc1)NC(=O)c1cnc2ccc(-c3ccc4oc(N)nc4c3)cn12 | 4.83 | < 4.00 | < 4.00 | 4.54 | 5.45 |  |  | 
7 | Nc1nc2cc(-c3ccc4nc(N5C[C@@H]6OCCO[C@@H]6C5)cnc4c3)ccc2o1 |  |  |  |  | 5.78 |  |  | 
8 | NC(=O)[C@@H](NC(=O)c1cnc2ccc(-c3ccc4oc(N)nc4c3)cn12)c1ccccc1 | 5.01 | 5.03 | 4.68 | 4.77 | 7.85 |  |  | 
9 | Nc1nc2cc(-c3ccc4ncc(C(=O)N5C[C@H]6OCCO[C@@H]6C5)n4c3)ccc2o1 (single isomer, unassigned) | 5.23 | 5.10 | 4.97 | 4.87 | 8.06 |  |  | 
10 | NC(=O)[C@@H]1CCCN1C(=O)c1cnc2ccc(-c3ccc4oc(N)nc4c3)cn12 | 5.66 | 5.00 | 4.60 | 4.92 | 7.74 |  |  | 
11 | Nc1nc2cc(-c3ccc4ncc(C(=O)N5C[C@@H]6OCCO[C@@H]6C5)n4c3)ccc2o1 | 5.64 | 5.27 | 4.91 | 5.15 | 8.14 |  |  | 
12 | Nc1nc2ccc(-c3ccc4ncc(C(=O)N5CCOC(CO)C5)n4c3)cc2o1 (single isomer, unassigned) | 4.72 | 4.84 | 4.76 | < 4.00 | 7.73 |  |  | 
13 | NC(=O)CNc1cnc2ccc(-c3ccc4oc(N)nc4c3)cc2n1 | 5.25 | 5.34 | 4.99 | 4.60 | 8.42 |  |  | 
14 | C[C@H](NC(=O)c1cnc2ccc(-c3ccc4oc(N)nc4c3)cn12)C(=O)O |  |  |  |  | < 5.00 |  |  | 
15 | C[C@@H](NC(=O)c1cnc2ccc(-c3ccc4oc(N)nc4c3)cn12)C(N)=O | 4.44 | < 4.00 | < 4.00 | < 4.00 | < 5.00 |  |  | 
16 | CCOC(=O)[C@H](C)NC(=O)c1cnc2ccc(-c3ccc4oc(N)nc4c3)cn12 | < 4.00 | < 4.00 | < 4.00 | < 4.00 | < 5.00 |  |  | 

The next lines start with the values.

Row | pIC50 [1] | pIC50 [2] | pIC50 [3] | pIC50 [4] | pIC50 [5] | pIC50 [6] | pIC50 [7] | pIC50 [8] | SMILES
17 | 5.74 | 5.15 | 4.68 | 4.95 | 8.34 | 6.09 | 6.94 | 6.63 | C[C@H](NC(=O)c1cnc2ccc(-c3ccc4oc(N)nc4c3)cn12)C(N)=O
18 |  |  |  |  | 5.01 |  |  |  | COC1CCN(C(=O)c2cnc3ccc(-c4ccc5oc(N)nc5c4)cn23)C1 (stereo unspecified)
19 |  |  |  |  | 6.86 |  |  |  | Nc1nc2cc(-c3ccc4ncc(C(=O)N5CCNCC5)n4c3)ccc2o1
20 |  |  |  |  | 6.97 |  |  |  | Nc1nc2cc(-c3ccc4ncc(NCC(=O)NO)nc4c3)ccc2o1
21 | < 4.00 | < 4.00 | < 4.00 | < 4.00 | 6.09 |  |  |  | CCC(NC(=O)c1cnc2ccc(-c3ccc4oc(N)nc4c3)cn12)C(=O)OC (stereo unspecified)
22 | 5.47 | 5.39 | < 4.00 | 4.50 | 7.55 |  |  |  | CN(C)C1CCN(C(=O)c2cnc3ccc(-c4ccc5oc(N)nc5c4)cn23)CC1
23 | < 4.00 | < 4.00 | < 4.00 | < 4.00 | 7.73 |  |  |  | C[C@H](Nc1ncnc2ccc(-c3ccc4oc(N)nc4c3)cc12)C(N)=O
24 | 4.98 | 4.59 | 4.82 | 4.22 | 6.30 |  |  |  | C[C@H](Nc1cnc2ccc(-c3ccc4oc(N)nc4c3)cc2n1)C(N)=O
25 | 4.82 | 5.22 | 4.91 | 4.96 | 7.97 |  |  |  | CN(C)C1CCN(C(=O)c2cnc3ccc(-c4ccc5oc(N)nc5c4)cn23)C1 (stereo unspecified)
26 |  |  |  |  | 6.22 |  |  |  | Nc1nc2cc(-c3ccc4ncc(N5C[C@@H]6OCCO[C@H]6C5)nc4c3)ccc2o1
